According to patent publication US20260373165A1, “PHARMACEUTICAL COMBINATIONS AND COMPOSITIONS, AND METHODS OF USE THEREOF” (SHENZHEN HIGHTIDE BIOPHARMACEUTICAL LTD., priority 2022, published 2026):

What was measured:
Format in all cases: in vivo, mouse (C57BL/6J male, 60% HFD DIO)
[1] = Example 2: body weight and body weight change rate, combined administration of HTD1801 and dapagliflozin or empagliflozin in DIO obesity model; conditions: for Body weight (mean) / Body weight change rate: HTD1801 250 mpk, dapagliflozin 10 mpk, empagliflozin 15 mpk p.o. QD, semaglutide 10 nmol/kg s.c. Q3D
Text: (§1) After 5-6-week-old C57BL/6J male mice were acclimatized for 1 week, the weight of each mouse was weighed, and the mice were randomly divided into a control group and a model group by taking the weight as a main index, where 12 mice in the control group were fed with common feed (CD), and the mice in the remaining model group were fed with 60% high-fat feed (60% HFD) for 10-12 weeks to construct a DIO obesity model, with the average body weight being not less than 40 g. The mice fed with 60% HFD were grabbed and acclimatized with a solvent for 3 days, where the acclimatization with a solvent was performed by oral gavage of 0.5% CMC-Na, once daily.
(§2) The food intake, the body weight, the body fat ratio, and the insulin level of the mice were respectively measured, followed by fasting blood glucose level, and the mice were randomly grouped according to Table 12 by taking the body weight as an index, and the remaining ungrouped mice were euthanized. After grouping, each group of mice was administered according to Table 12, the day of administration was defined as DO, and the administration volume of each drug was determined based on the results obtained by the calculation of 5 μL/g× mouse body weight (g).
(§3) For the combined administration group, the administration sequence and the administration time were kept consistent at each administration. The mice were continuously fed with high-fat feed during the administration period until the administration was finished. During administration, 1 food intake was measured per week (difference in feed weights at an interval of 24 h was measured); each group of mice was weighed once daily; blood was collected from the tail tip on day 16 and day 30, respectively, so as to measure fasting blood glucose levels once (blood was collected after fasting from 9:00 am to 3:[…]); on day 24 of administration (D23), the body fat ratio and the lean mass of each group of mice were measured by MRI (the measurement period was kept consistent with that before grouping); after 25 days of administration intervention (day 24), each group of mice was fasted for 6 h and subjected to OGTT (0 min, 15 min, 30 min, 60 min, 90 min, 120 min) to detect their blood glucose levels; after 29 days of administration intervention (day 28), each group of mice was fasted for 6 h and subjected to OGTT (0 min, 15 min, 30 min, 60 min, 90 min, 120 min), and meanwhile subjected to blood sampling via submaxillary vein (0 min, 15 min, 30 min, about 30 μL of blood sampled each time), and then the blood plasma was separated for detecting the insulin level by ELISA, where the separated blood plasma was more than 10 μL; the next day (D30) at the end of administration was set as the test endpoint, and the mice were fasted for 6 h in the morning and subjected to fasting blood glucose level measurement; subsequently, the mice were euthanized with CO2, blood was collected from the heart of each mouse for analysis, and each group of mice was dissected; the liver and subcutaneous, epididymal and mesenteric fat was collected, photographed and weighed, respectively.

[2] = Example 2: body fat mass by MRI on day 23
Text: as §1, §2, §3
The body weight, the body fat mass and the body fat ratio of each animal in groups G1 to G8 were measured on day 23 and averaged for each group, and the results are shown in Table 15 below, and FIGS. 21 and 22.

[3] = Example 2: lean mass by MRI on day 23
Text: as §1, §2, §3
The body weight, the lean mass and the lean ratio of each animal in groups G1 to G8 were measured on day 23 and averaged for each group, and the results are shown in Table 16 below, and FIGS. 23 and 24.

[4] = mean, day 23, HTD1801 250 mpk, dapagliflozin 10 mpk, empagliflozin 15 mpk p.o. QD

CCOc1ccc(Cc2cc([C@@H]3O[C@H](CO)[C@@H](O)[C@H](O)[C@H]3O)ccc2Cl)cc1 [Dapagliflozin, dapagliflozin]
body weight decrease ([1]; dapagliflozin 10 mpk p.o. QD): 3.4% | Body weight (mean) ([1]; day 0 (baseline)): 45.4 g | Body weight change rate ([1]; day 0 (baseline)): 0.0% | Body weight (mean) ([1]; day 1): 45.5 g | Body weight change rate ([1]; day 1): 0.3% | Body weight (mean) ([1]; day 2): 45.3 g | Body weight change rate ([1]; day 2): −0.1% | Body weight (mean) ([1]; day 3): 45.1 g | Body weight change rate ([1]; day 3): −0.6% | Body weight (mean) ([1]; day 4): 44.8 g | Body weight change rate ([1]; day 4): −1.2% | Body weight (mean) ([1]; day 5): 44.3 g | Body weight change rate ([1]; day 5): −2.4% | Body weight (mean) ([1]; day 6): 44.1 g | Body weight change rate ([1]; day 6): −2.7% | Body weight (mean) ([1]; day 7): 44.0 g | Body weight change rate ([1]; day 7): −2.9% | Body weight (mean) ([1]; day 8): 43.7 g | Body weight change rate ([1]; day 8): −3.7% | Body weight (mean) ([1]; day 9): 43.4 g | Body weight change rate ([1]; day 9): −4.4% | Body weight (mean) ([1]; day 10): 43.5 g | Body weight change rate ([1]; day 10): −4.2% | Body weight (mean) ([1]; day 11): 43.2 g | Body weight change rate ([1]; day 11): −4.7% | Body weight (mean) ([1]; day 12): 43.1 g | Body weight change rate ([1]; day 12): −4.9% | Body weight (mean) ([1]; day 13): 42.6 g | Body weight change rate ([1]; day 13): −6.1% | Body weight (mean) ([1]; day 14): 42.7 g | Body weight change rate ([1]; day 14): −6.0% | Body weight (mean) ([1]; day 15): 42.9 g | Body weight change rate ([1]; day 15): −5.5% | Body weight (mean) ([1]; day 16): 42.8 g | Body weight change rate ([1]; day 16): −5.7% | Body weight (mean) ([1]; day 17): 43.2 g | Body weight change rate ([1]; day 17): −4.7% | Body weight (mean) ([1]; day 18): 43.3 g | Body weight change rate ([1]; day 18): −4.5% | Body weight (mean) ([1]; day 19): 43.5 g | Body weight change rate ([1]; day 19): −4.2% | Body weight (mean) ([1]; day 20): 43.5 g | Body weight change rate ([1]; day 20): −4.1% | Body weight (mean) ([1]; day 21): 43.9 g | Body weight change rate ([1]; day 21): −3.3% | Body weight (mean) ([1]; day 22): 43.9 g | Body weight change rate ([1]; day 22): −3.3% | Body weight (mean) ([1]; day 23): 43.8 g | Body weight change rate ([1]; day 23): −3.5% | Body weight (mean) ([1]; day 24): 43.5 g | Body weight change rate ([1]; day 24): −4.2% | Body weight (mean) ([1]; day 25): 43.9 g | Body weight change rate ([1]; day 25): −3.2% | Body weight (mean) ([1]; day 26): 44.2 g | Body weight change rate ([1]; day 26): −2.5% | Body weight (mean) ([1]; day 27): 44.3 g | Body weight change rate ([1]; day 27): −2.4% | Body weight (mean) ([1]; day 28): 43.9 g | Body weight change rate ([1]; day 28): −3.2% | Body weight (mean) ([1]; day 29): 43.8 g | Body weight change rate ([1]; day 29): −3.4% | increase of body fat relative to control group G2 ([2]; day 23): about 8.6% | body fat mass and body fat ratio (in words) ([2]; day 23, relative to control group G2): increased | Body weight ([2]; mean, day 23 (Table 15), HTD1801 250 mpk, dapagliflozin 10 mpk, empagliflozin 15 mpk p.o. QD): 43.8 g | Body fat ratio [2, 4]: 48.8% | Fat (body fat mass) [2, 4]: 21.4 g | lean ratio (in words) ([3]; day 23, relative to model control group G2): slightly decreased | Body weight ([3]; mean, day 23 (Table 16), HTD1801 250 mpk, dapagliflozin 10 mpk, empagliflozin 15 mpk p.o. QD): 43.8 g | Lean (lean mass) [3, 4]: 4.3 g | Lean ratio [3, 4]: 9.9%
